# Source: US20080233561A1, “Method for Measuring Cytopathic Effect Due to Viral Infection in Cells Using Electric Cell-Substrate Impedance Sensing” (UNIVERSITY OF LOUISVILLE RESEARCH FOUNDATION, INC., priority 2005, published 2008)
# Tested on: PR8 influenza A virus (influenza/A/PR/8/34 virus)
# Type: cell-based
# Conditions: MDCK cells pretreated 1 hour with 20 mM NH4Cl and kept under NH4Cl; […]; approximately 48 hours PI; 4,000 Hz; listed as ammonium chloride (NH4Cl)
compound,measurement,value
"Cl.N [NH4Cl, ammonium chloride]",signal resistance (ECIS) of the cell monolayer following influenza inoculation,the reduction in signal resistance due to influenza infection is abolished
